# Data published in patent US6407080B2, “N-(pyrimidinyl)-aspartic acid analogs as interleukin-1β converting enzyme inhibitors” (Vertex Pharmaceuticals Incorporated, priority 1994, dated 2002).
# Experiments:
# [1] = system: release of mature IL-1β from human monocytes; test: Human monocyte pulse chase assay, inhibition of release of mature IL-1β (called "in vivo"); type: cell-based; settings: freshly isolated human monocytes activated with fixed S. aureus, 2-3 donors, values approximate
# Description: In vivo inhibition (IC50) was determined based on Miller et al., “Inhibition of Mature IL-1β Production in Murine Macrophages and a Murine Model of Inflammation By WIN 67694, An Inhibitor of IL-1β Converting Enzyme, J. Immunol., 1994, 154, 1331, as follows:
# Human monocytes were isolated from heparinized leukopheresis units obtained through Biological Specialty Corporation (Lansdale, Pa.). Monocytes were purified by Ficoll-Hupaque (Pharmacia Fine Chemicals, Piscataway, N.J.) gradient centrifugation and more than 95% pure monocyte populations obtained by centrifugal elutriation. The assay was performed on duplicate samples of freshly isolated human monocytes, cultured in suspension at 37° C. and rotated gently in conical bottom polypropylene tubes (Sardstedt Inc., Princeton, N.J.). Human monocytes at a concentration of 5×10^6 cells/mL were resuspended in 1 mL of RPMI 1640 (a common tissue buffer from M.A. Bioproducts, Walkersville, Md.) containing 1% fetal calf serum (FCS) (HyClone, Logan, Utah) and 50 μg/mL gentamycin (Gibco, Grand Island, N.Y.). The cells were treated either with a compound of the invention (i.e. test compound) or with a non-inhibitor (control compound, typically 0.03% DMSO) for 15 minutes and then activated with 0.01% fixed Staphylococcus aureus (The Enzyme Center, Malden, Mass.) for 1 hour. The cells were then centrifuged and resuspended in 1 mL of cysteine, methionine-free RPMI media containing 1% dialyzed FCS (Hyclone). The cells were pretreated with a test compound or control compound for 15 minutes after which 0.01% fixed S. aureus plus 100 μCi Tran 35-S label (ICN, Irvine, Calif.) was added and the cells incubated at 37° C. for 1 hour. After incubation, […]. The cells were again pretreated with a test or control compound for 15 minutes and then 0.01% S. aureus for 2 hours. […]
# In the monocyte pulse chase assay, each test parameter was run in duplicate. […] When test compounds were evaluated, the percent inhibition of release of mature IL-β was calculated as follows: […]
# [2] = target: T1, elastase (Homo sapiens, UniProt P08246); test: Elastase inhibition (in vitro); type: biochemical; settings: in vitro assay per Cha; did not inhibit elastase
# T1 sequence (P08246 30-267): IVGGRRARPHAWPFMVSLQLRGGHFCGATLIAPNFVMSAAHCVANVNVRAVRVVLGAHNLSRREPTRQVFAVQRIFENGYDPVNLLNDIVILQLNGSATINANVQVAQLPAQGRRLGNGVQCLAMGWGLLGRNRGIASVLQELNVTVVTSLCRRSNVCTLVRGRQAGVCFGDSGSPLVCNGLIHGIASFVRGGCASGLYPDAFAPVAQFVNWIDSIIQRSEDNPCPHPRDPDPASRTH
# Text: It should be noted that the pyrimidine-based trifluoromethyl ketones (FIG. 2) were recently described as inhibitors of the serene protease, elastase. Since ICE is a cysteine protease and it is known in the prior art that trifluoromethyl ketones are rather poor inhibitors of cysteine proteases (See, Imperialia, B. and Ables, R. H., Biochemistly (1986), 2, 3760-7), it is expected that the pyrimidines of FIG. 2 would not be inhibitors of ICE. Also, it is known that ICE requires the aspartic acid side chain (—CH2COOH) at PI. Pyrimidines which inhibit elastase (FIG. 2) contain the valine side chain (—CHMe2).
# Compounds of examples 1, 6 and 7 were examined for their ability to inhibit elastase. The in vitro assay was carried out as described by Cha, Biochem. Pharmacol., (1975), 24, 2177-2185.
IC50 [1] [µM],IC50 [2] [µM],Compound
0.1 to 10,≥ 10,"CC(C)OC(=O)Nc1cnc(-c2ccccc2)n(CC(=O)N[C@@H](CC(=O)O)C(=O)COc2cc(C(F)(F)F)nn2-c2ccccc2)c1=O [Example 7, N-[2-(5-Isopropyloxycarbonylamino-6-oxo-2-phenyl-1,6-dihydro-1-pyrimidinyl)acetoyl]-L-aspartic Acid 5-(1-phenyl-3-trifluoromethyl)pyrazoloxymethyl Ketone]"
0.1 to 10,≥ 10,O=C(O)C[C@H](NC(=O)Cn1c(-c2ccc(F)cc2)ncc(NC(=O)OCc2ccccc2)c1=O)C(=O)COC(=O)c1c(Cl)cccc1Cl [Example 1]
0.1 to 10,≥ 10,"O=C(O)C[C@H](NC(=O)Cn1c(-c2ccc(F)cc2)ncc(NC(=O)OCc2ccccc2)c1=O)C(=O)COc1cc(C(F)(F)F)nn1-c1ccccc1 [Example 6, N-[2-(5-Benzyloxycarbonylamino-6-oxo-2-(4-fluorophenyl)-1,6-dihydro-1-pyrimidinyl)acetoyl]-L-aspartic Acid 5-(1-phenyl-3-trifluoromethyl)pyrazoloxymethyl Ketone]"
